Laboratory results taken from publication PMC8197120, “Synthesis and Characterization of Some New Quinoxalin-2(1H)one and 2-Methyl-3H-quinazolin-4-one Derivatives Targeting the Onset and Progression of CRC with SAR, Molecular Docking, and ADMET Analyses” (Molecules, 2021).
In brackets after ≈: the same amount, converted by molar mass. Read-outs that look alike come from different tables or passages of the source.

Key:
HCT-116 cells = experiment: In vitro cytotoxicity assay (LDH release); type: cell-based, human
Procedure: (§1) The best-in-class compounds, including (4c), (4d), (6a), (6b), (6d), (6e), and (6g), which were recognized as antimicrobial and enzymatic inhibitors, were further examined for their cytotoxic effects on LoVo and HCT-116 cells of human colon cancer. This was carried out by determining the residual percentages of viable cells after being treated with the compounds at different concentrations (50, 100, 200, and 400 µg/mL), using triton X-100 (at concentration of 0.1%) in the assay medium and the assay as the positive and negative controls, respectively.
(§2) Samples were diluted in Dulbecco’s modified Eagles medium, consisting of 10% fetal bovine serum, added to cells grown and cultured for 24 h in a 5% CO2-humidified incubator at 37 °C. Then, the activity of lactate dehydrogenase released from damaged cells was determined in the collected supernatant aliquots using an ELISA end-point assay (Benchmark Plus, Bio-Rad, CA, USA). The 0.1% Triton X-100 in the assay medium and the assay medium only were used as positive and negative controls, respectively. Cell viability, expressed as a relative percentage of the OD values (at 550 nm) for compound-treated cells (final concentration of 200 µg) and the control, is shown as mean ± SD (n = 2).

LoVo cells = experiment: In vitro cytotoxicity assay (LDH release); type: cell-based, human
Procedure: as §1, §2

[1] = biological target: purified recombinant human LDHA protein (Homo sapiens, UniProt P00338); experiment: Lactate dehydrogenase-A (LDHA) inhibition assay, NADH consumption; type: biochemical; conditions: LDHA; for inhibition at 100 µg/mL: read-out: Mean Inhibition % at 100 µg/ml ± SD; for inhibition at 200 µg/mL: read-out: Mean Inhibition % at 200 µg/ml ± SD
Procedure: LDHA inhibition activity was investigated by measuring the amounts of consumed NADH as described by Kim and his group. Briefly, different concentrations of each compound (50, 100, 200, and 300 µg) were incubated in buffer containing 20 mM of HEPES-K+ (pH 7.2), 20 μM of NADH, 2 mM of pyruvate, and 10 ng of purified recombinant human LDHA protein for 10 min. The fluorescence of NADH, which has an excitation wavelength of 340 nm and emission wavelength of 460 nm, was detected using a Spectrofluorometer.

[2] = tested on: Bacteroides fragilis (ATCC 25285); experiment: Antibacterial activity, CFU viability; type: cell-based; conditions: ATCC25285, mean of two determinations, read-out: Mean IC50 ± SD
Procedure: (§3) Pure standard microbial isolates collected from King Khaled University Hospital were tested in this study, including Enterococcus faecalis (ATCC 29122) as Gram positive bacteria and Escherichia coli (ATCC 25922) and Bacteroides fragilis (ATCC 25285) as Gram negative bacteria. Fresh cultures of each microorganism were grown on nutrient agar plates (Oxoid, UK), of which small inoculums were suspended in 5 mL nutrient broth for bacterial suspension preparation of 0.5MacFarland. Bacterial viability was investigated by estimating the colony-forming unit (CFU) ability of the bacteria incubated at different time intervals without or with appropriate amounts of the compound that were mixed with 2 × 10^7 CFU/mL in sterile BHI broths and were incubated under shaking for 60 min at 37 °C. Samples were serially diluted into sterile BHI broths, streaked onto media agar plates, and incubated for 24 h at 37 °C. The antibacterial potency of tested compounds was expressed as the residual number of CFU with reference to the initial inoculums. […] Ampicillin (1 mg/mL) was used as a positive standard reference.

[3] = tested on: Enterococcus faecalis (ATCC 29122); experiment: Antibacterial activity, CFU viability; type: cell-based; conditions: ATCC29122, mean of two determinations, read-out: Mean IC50 ± SD
Procedure: as §3

[4] = tested on: Escherichia coli (ATCC 25922); experiment: Antibacterial activity, CFU viability; type: cell-based; conditions: ATCC25922, mean of two determinations, read-out: Mean IC50 ± SD
Procedure: as §3

COX-2 = biological target: T1, COX-2 (Homo sapiens, UniProt P35354); experiment: Cyclooxygenase (COX-2) inhibition assay (Cayman kit 701080); type: biochemical; conditions: for inhibition at 100 µg/mL: read-out: Mean Inhibition % at 100 µg/ml ± SD; for inhibition at 200 µg/mL: read-out: Mean Inhibition % at 200 µg/ml ± SD
T1 construct: purchased Cayman Chemical Company 701080
T1 sequence (P35354 18-604): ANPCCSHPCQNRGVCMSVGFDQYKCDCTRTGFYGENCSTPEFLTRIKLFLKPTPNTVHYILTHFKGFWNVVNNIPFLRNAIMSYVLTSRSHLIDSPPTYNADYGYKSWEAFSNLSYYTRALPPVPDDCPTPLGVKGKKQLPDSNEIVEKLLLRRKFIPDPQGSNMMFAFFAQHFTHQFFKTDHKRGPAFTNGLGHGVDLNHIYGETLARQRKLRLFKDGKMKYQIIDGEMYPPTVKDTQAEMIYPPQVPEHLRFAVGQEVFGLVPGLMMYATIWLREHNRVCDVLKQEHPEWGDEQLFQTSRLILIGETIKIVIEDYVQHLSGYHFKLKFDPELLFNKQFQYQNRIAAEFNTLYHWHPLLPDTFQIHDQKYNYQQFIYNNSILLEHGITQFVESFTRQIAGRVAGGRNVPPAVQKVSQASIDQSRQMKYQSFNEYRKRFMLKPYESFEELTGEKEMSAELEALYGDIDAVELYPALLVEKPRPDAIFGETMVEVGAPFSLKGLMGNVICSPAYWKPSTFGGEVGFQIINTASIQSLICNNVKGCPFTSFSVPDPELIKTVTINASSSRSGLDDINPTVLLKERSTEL
Procedure: The compounds were resuspended in 100% DMSO at a final concentration of 10 mg/mL. […] The inhibitory activity was expressed as the inhibition percentage, which was determined by comparison with a control experiment. IC50 values were deduced from the curves.

[5] = In vitro cytotoxicity assay (LDH release); type: cell-based, human; conditions: human, 200 µg/ml, 24 h
Procedure: as §1, §2

[6] = HCT-116 colon cancer cells, read-out: Mean % Cell Viability ± SD CRC-HCT-116 cells
[7] = LoVo colon cancer cells, read-out: Mean % Cell Viability ± SD CRC-LoVo cells

Row | Compound | Mean % Cell Viability, positive control (HCT-116 cells) [%] | Mean % Cell Viability, positive control (LoVo cells) [%] | inhibition at 100 µg/mL [1] [%] | inhibition at 200 µg/mL [1] [%] | IC50 [2] [µg/mL] | IC50 [3] [µg/mL] | IC50 [4] [µg/mL] | inhibition at 100 µg/mL (COX-2) [%] | inhibition at 200 µg/mL (COX-2) [%] | viability at 24 h, 200 µg/mL [5, 6] [%] | viability at 24 h, 200 µg/mL [5, 7] [%] | IC50 [1] [µM]
1 | Triton X-100 [reference compound] | 0.00 | 0.00 |  |  |  |  |  |  |  |  |  | 
2 | COc1cc2nc(C)n(N=Cc3ccc(C(=O)O)cc3)c(=O)c2cc1OC [Compound 6b, 4-[(6,7-Dimethoxy-2-methyl-4-oxo-4H-quinazolin-3-ylimino)-methyl]-benzoic acid] |  |  | 32 ± 2.55 | 49.2 | 10.3 ± 1.2 (≈ 28.2 µM) | 12.7 (≈ 34.4 µM) | 18.2 ± 0.99 (≈ 49.5 µM) | 37.1 ± 2.69 | 69 ± 2.76 | 47 ± 2.83 | 54.2 ± 2.47 | 
3 | CCc1ccc(C=Nn2c(C)nc3ccc(F)cc3c2=O)s1 [Compound 6g, 3-[(5-Ethyl-thiophen-2-ylmethylene)-amino]-6-fluoro-2-methyl-3H-quinazolin-4-one] |  |  | 53.6 | 89.8 | 19.9 ± 2.26 (≈ 63.1 µM) | 17.2 ± 1.77 (≈ 54.7 µM) | 24.8 ± 1.77 (≈ 78.5 µM) | 28.8 ± 2.47 | 48.6 ± 3.75 | 86.5 ± 2.12 | 88.2 ± 2.62 | 334
